# Data from ChEMBL document CHEMBL6078700, “Synthesis of novel deuterated EGFR/ALK dual-target inhibitors and their activity against non-small cell lung cancer” (Eur J Med Chem, 2025).
# pIC50: −log10 of the molar value.
# Legend:
# EML4-ALK = EML4-ALK (Homo sapiens, UniProt Q9UM73); assay: Inhibition of EML4-ALK (unknown origin) phosphorylation by ELISA; type: protein assay
# [1] = Metabolic stability in human liver microsomes assessed as clearance at 1 uM measured for 60 mins by LC-MS/MS analysis; type: ADME, Microsome; conditions: read-out: CLH
# PC-9 = assay: Antiproliferative activity against human PC-9 cells expressing EGFR mutation incubated for 48 hrs by CCK8 assay
# [2] = Metabolic stability in human liver microsomes assessed as half life at 1 uM measured for 60 mins by LC-MS/MS analysis; type: ADME, Microsome
# [3] = Antiproliferative activity against human NCI-H1975 cells expressing EGFR mutation incubated for 48 hrs by CCK8 assay
# BaF3 = assay: Antiproliferative activity against mouse BaF3 cells expressing EML4-ALK fusion incubated for 48 hrs by CCK8 assay
# NCI-H522 = assay: Antiproliferative activity against human NCI-H522 cells expressing wild-type EGFR/ALK incubated for 48 hrs by CCK8 assay
# NCI-H2228 = assay: Antiproliferative activity against human NCI-H2228 cells expressing EML4-ALK fusion incubated for 48 hrs by CCK8 assay
# NCI-H1975 [4] = assay: Antitumor activity against human NCI-H1975 cells xenografted in BALB/c-nu mouse at 30 mg/kg, po administered daily orally for 7 days relative to control; type: functional; conditions: time 7 day; for inhibition in vivo at 30 mg/kg: Mus musculus, NCI-H1975, 168 h, read-out: TGI
# NCI-H1975 [5] = assay: Antitumor activity against human NCI-H1975 cells xenografted in BALB/c-nu mouse at 30 mg/kg, po administered daily orally for 21 days relative to control; type: functional; conditions: time 21 day
# NCI-H1975 [6] = assay: Antitumor activity against human NCI-H1975 cells xenografted in BALB/c-nu mouse at 5 mg/kg, po administered daily orally for 21 days relative to control; type: functional; conditions: time 21 day, 5 mg/kg, 504 h
# NCI-H1975 [7] = assay: Antitumor activity against human NCI-H1975 cells xenografted in BALB/c-nu mouse at 15 mg/kg, po administered daily orally for 21 days relative to control; type: functional; conditions: time 21 day, 15 mg/kg, 504 h
# NCI-H1975 [8] = assay: Induction of apoptosis in human NCI-H1975 cells assessed as late apoptotic cells at 5 nM incubated for 48 hrs by allo-Phycocyanin-Annexin V staining based flow cytometry (reference value: 4.08 %); type: functional
# NCI-H1975 [9] = assay: Induction of apoptosis in human NCI-H1975 cells assessed as viable cells at 5 nM incubated for 48 hrs by allo-Phycocyanin-Annexin V staining based flow cytometry (reference value: 93.6 %); type: functional
# NCI-H1975 [10] = assay: Induction of cell cycle arrest in human NCI-H1975 cells assessed as accumulation at S phase at 5 nM incubated for 24 hrs by PI/RNase staining based flow cytometry (reference value: 17.1 %); type: functional
# NCI-H1975 [11] = assay: Induction of cell cycle arrest in human NCI-H1975 cells assessed as accumulation at G2/M phase at 5 nM incubated for 24 hrs by PI/RNase staining based flow cytometry (reference value: 32.71 %); type: functional
# NCI-H1975 [12] = assay: Induction of apoptosis in human NCI-H1975 cells assessed as necrotic cells at 5 nM incubated for 48 hrs by allo-Phycocyanin-Annexin V staining based flow cytometry (reference value: 0.031 %); type: functional
# NCI-H1975 [13] = assay: Induction of cell cycle arrest in human NCI-H1975 cells assessed as accumulation at G0/G1 phase at 5 nM incubated for 24 hrs by PI/RNase staining based flow cytometry (reference value: 50.19 %); type: functional
# NCI-H1975 [14] = assay: Induction of apoptosis in human NCI-H1975 cells assessed as early apoptotic cells at 5 nM incubated for 48 hrs by allo-Phycocyanin-Annexin V staining based flow cytometry (reference value: 2.27 %); type: functional
# EML4-ALK, sequence (Q9UM73 whole entry): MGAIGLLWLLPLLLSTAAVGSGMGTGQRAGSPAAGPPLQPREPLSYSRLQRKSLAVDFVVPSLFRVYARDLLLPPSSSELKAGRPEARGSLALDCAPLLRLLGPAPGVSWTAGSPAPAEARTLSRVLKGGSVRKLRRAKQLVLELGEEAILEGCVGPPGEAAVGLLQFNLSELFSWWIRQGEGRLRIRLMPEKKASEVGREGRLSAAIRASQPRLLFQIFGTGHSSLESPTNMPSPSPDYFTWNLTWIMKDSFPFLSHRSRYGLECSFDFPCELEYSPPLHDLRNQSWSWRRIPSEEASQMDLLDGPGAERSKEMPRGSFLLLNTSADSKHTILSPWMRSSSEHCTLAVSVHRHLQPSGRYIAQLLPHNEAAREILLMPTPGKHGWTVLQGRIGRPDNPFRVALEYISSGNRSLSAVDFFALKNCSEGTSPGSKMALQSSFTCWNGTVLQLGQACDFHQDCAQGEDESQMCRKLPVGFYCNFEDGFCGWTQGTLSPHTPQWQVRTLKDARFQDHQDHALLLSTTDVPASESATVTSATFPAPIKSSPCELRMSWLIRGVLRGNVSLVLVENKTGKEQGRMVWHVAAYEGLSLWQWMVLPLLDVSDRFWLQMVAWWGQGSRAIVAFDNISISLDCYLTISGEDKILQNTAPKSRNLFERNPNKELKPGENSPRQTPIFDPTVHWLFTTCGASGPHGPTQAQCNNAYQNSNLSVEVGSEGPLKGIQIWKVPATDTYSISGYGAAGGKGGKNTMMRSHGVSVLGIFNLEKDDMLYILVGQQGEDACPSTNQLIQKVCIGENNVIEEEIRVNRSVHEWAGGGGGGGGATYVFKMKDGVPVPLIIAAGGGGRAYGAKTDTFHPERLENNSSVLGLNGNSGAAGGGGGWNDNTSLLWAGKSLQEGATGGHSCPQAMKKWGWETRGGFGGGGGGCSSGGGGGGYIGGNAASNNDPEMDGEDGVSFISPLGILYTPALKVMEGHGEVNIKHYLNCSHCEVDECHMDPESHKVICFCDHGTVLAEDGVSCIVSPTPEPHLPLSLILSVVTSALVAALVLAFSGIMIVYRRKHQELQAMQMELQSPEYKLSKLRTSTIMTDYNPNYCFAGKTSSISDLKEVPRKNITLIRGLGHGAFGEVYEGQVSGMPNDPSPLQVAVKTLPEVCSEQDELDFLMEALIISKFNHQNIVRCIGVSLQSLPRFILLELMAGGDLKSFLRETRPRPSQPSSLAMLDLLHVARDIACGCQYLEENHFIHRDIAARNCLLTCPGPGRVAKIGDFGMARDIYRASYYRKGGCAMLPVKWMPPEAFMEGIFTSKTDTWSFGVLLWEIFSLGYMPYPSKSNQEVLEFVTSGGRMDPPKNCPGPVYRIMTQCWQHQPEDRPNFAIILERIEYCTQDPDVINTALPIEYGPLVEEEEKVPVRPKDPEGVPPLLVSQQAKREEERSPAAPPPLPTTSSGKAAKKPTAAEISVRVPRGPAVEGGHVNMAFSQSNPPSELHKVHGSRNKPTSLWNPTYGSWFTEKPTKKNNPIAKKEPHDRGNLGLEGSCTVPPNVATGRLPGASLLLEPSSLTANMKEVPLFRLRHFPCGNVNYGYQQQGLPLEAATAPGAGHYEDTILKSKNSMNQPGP
# EML4-ALK, sequence (Q9HC35 whole entry, further chain): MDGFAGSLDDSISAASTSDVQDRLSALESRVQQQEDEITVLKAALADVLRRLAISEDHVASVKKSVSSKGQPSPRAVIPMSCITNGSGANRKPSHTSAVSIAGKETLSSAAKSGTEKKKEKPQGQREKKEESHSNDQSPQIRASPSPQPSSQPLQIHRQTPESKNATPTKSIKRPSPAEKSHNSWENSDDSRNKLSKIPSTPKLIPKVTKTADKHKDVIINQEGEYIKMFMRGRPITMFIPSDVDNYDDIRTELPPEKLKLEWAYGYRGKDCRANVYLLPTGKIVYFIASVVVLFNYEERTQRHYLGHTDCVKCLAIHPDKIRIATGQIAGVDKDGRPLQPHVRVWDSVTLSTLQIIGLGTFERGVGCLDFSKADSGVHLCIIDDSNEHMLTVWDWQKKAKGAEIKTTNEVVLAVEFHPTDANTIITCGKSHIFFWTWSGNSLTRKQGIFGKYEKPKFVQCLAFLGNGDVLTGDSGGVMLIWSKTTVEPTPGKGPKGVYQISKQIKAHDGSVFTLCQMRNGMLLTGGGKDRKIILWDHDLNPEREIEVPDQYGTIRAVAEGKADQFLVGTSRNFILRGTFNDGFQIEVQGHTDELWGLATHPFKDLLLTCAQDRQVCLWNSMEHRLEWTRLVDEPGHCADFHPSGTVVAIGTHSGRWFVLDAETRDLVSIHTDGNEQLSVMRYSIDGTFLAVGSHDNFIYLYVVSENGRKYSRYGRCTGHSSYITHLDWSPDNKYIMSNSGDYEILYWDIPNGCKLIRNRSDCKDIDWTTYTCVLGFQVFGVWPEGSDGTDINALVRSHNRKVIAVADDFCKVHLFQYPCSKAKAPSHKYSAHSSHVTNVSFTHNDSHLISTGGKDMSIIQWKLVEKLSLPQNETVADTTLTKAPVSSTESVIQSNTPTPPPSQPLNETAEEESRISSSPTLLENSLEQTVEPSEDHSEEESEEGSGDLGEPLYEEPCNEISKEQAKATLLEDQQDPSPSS
SMILES,pIC50 (EML4-ALK),microsomal CLint at 1 µM [1],"pIC50 (PC-9; Homo sapiens, PC-9, 48 h)",half-life at 1 µM [2],"pIC50 ([3]; Homo sapiens, NCI-H1975, 48 h)","pIC50 (BaF3; Mus musculus, BaF3, 48 h)","pIC50 (NCI-H522; Homo sapiens, NCI-H522, 48 h)","pIC50 (NCI-H2228; Homo sapiens, NCI-H2228, 48 h)",also measured
C=CC(=O)Nc1cc(Nc2ncc(Cl)c(Nc3ccc(Cl)cc3[S+]([O-])C(C)C)n2)c(OC)cc1N(C)CCN(C)C (stereo not given),8.17,132 µL/min/mg,8.60,26.3 min,8.42,8.63,5.86,7.72,–
[2H]C([2H])([2H])C([2H])([2H])[S+]([O-])c1cc(Cl)ccc1Nc1nc(Nc2cc(NC(=O)C=C)c(N(C)CCN(C)C)cc2OC)ncc1Cl (stereo not given),8.06,68.7 µL/min/mg,8.41,50.5 min,8.41,8.44,5.57,7.49,–
[2H]C([2H])([2H])C([2H])([S+]([O-])c1ccccc1Nc1nc(Nc2cc(NC(=O)C=C)c(N(C)CCN(C)C)cc2OC)ncc1Cl)C([2H])([2H])[2H] (stereo not given),8.00,109 µL/min/mg,7.34,31.9 min,8.03,7.84,5.56,7.90,–
C=CC(=O)Nc1cc(Nc2ncc(Cl)c(Nc3cccc(F)c3[S+]([O-])C(C)C)n2)c(OC)cc1N(C)CCN(C)C (stereo not given),8.26,107 µL/min/mg,8.55,32.3 min,8.12,8.53,5.60,7.62,–
[2H]C([2H])([2H])C([2H])([2H])[S+]([O-])c1c(F)cccc1Nc1nc(Nc2cc(NC(=O)C=C)c(N(C)CCN(C)C)cc2OC)ncc1Cl (stereo not given),8.25,27.7 µL/min/mg,8.29,125 min,8.02,8.11,5.27,7.24,inhibition in vivo at 30 mg/kg (NCI-H1975 [4]): 85.9%
C=CC(=O)Nc1cc(Nc2ncc(Cl)c(Nc3ccccc3[S+]([O-])CC)n2)c(OC)cc1N(C)CCN(C)C (stereo not given),8.33,–,8.21,–,8.37,8.44,–,7.37,–
C=CC(=O)Nc1cc(Nc2ncc(Cl)c(Nc3cccc(F)c3[S+]([O-])CC)n2)c(OC)cc1N(C)CCN(C)C (stereo not given),8.35,15.5 µL/min/mg,8.50,223 min,8.55,8.39,5.10,7.17,inhibition in vivo at 30 mg/kg (NCI-H1975 [4]): 75.3%
C=CC(=O)Nc1cc(Nc2ncc(Cl)c(Nc3cccc(Cl)c3[S+]([O-])C(C)C)n2)c(OC)cc1N(C)CCN(C)C (stereo not given),8.13,92 µL/min/mg,8.39,37.7 min,8.12,8.03,5.62,7.65,–
C=CC(=O)Nc1cc(Nc2ncc(Cl)c(Nc3cccc(Cl)c3[S+]([O-])CC)n2)c(OC)cc1N(C)CCN(C)C (stereo not given),8.14,66.7 µL/min/mg,> 12.00,52 min,8.42,7.44,5.62,7.27,–
[2H]C([2H])([2H])C([2H])([S+]([O-])c1c(F)cccc1Nc1nc(Nc2cc(NC(=O)C=C)c(N(C)CCN(C)C)cc2OC)ncc1Cl)C([2H])([2H])[2H] (stereo not given),8.68,70.5 µL/min/mg,8.25,49.1 min,7.76,7.79,5.66,7.62,–
[2H]C([2H])([2H])C([2H])([2H])[S+]([O-])c1ccccc1Nc1nc(Nc2cc(NC(=O)C=C)c(N(C)CCN(C)C)cc2OC)ncc1Cl (racemic),8.43,21.4 µL/min/mg,–,162 min,–,–,–,7.53,pIC50 (PC-9; pc-9): 8.20; inhibition in vivo at 30 mg/kg (NCI-H1975 [4]): 96.8%; pIC50 ([3]; nci-h1975): 8.63; pIC50 (BaF3; baf3): 8.45; pIC50 (NCI-H522; nci-h522): 5.33
"[2H]C([2H])([2H])C([2H])([2H])[S+]([O-])c1ccccc1Nc1nc(Nc2cc(NC(=O)C=C)c(N(C)CCN(C)C)cc2OC)ncc1Cl (single isomer, unassigned; (+))",–,–,–,–,–,–,–,–,"TGI (NCI-H1975 [5]; 30 mg/kg, 504 h): 91.87%; pIC50 (PC-9; pc-9): 8.16; TGI (NCI-H1975 [6]): 72.01%; TGI (NCI-H1975 [7]): 86.97%; pIC50 ([3]; nci-h1975): 8.27; pIC50 (BaF3; baf3): 7.74; pIC50 (NCI-H522; nci-h522): 5.20; pIC50 (NCI-H2228; nci-h2228): 7.42"
COc1cc(N2CCC(N3CCN(C)CC3)CC2)ccc1Nc1ncc(Cl)c(Nc2ccccc2P(C)(C)=O)n1 [BRIGATINIB],–,–,6.01,–,6.32,8.13,5.34,7.54,–
Cc1cc(Nc2ncc(Cl)c(Nc3ccccc3S(=O)(=O)C(C)C)n2)c(OC(C)C)cc1C1CCNCC1 [CERITINIB],–,–,5.67,–,5.68,7.99,5.56,7.74,–
C=CC(=O)Nc1cc(Nc2nccc(-c3cn(C)c4ccccc34)n2)c(OC)cc1N(C)CCN(C)C [OSIMERTINIB],–,–,8.19,–,8.38,6.49,5.64,5.74,TGI (NCI-H1975 [5]): 95.05%; Activity (NCI-H1975 [8]): 16.7%; TGI (NCI-H1975 [4]): 94.73%; Activity (NCI-H1975 [9]): 71.1%; Activity (NCI-H1975 [10]): 6.87%; Activity (NCI-H1975 [11]): 27.24%; Activity (NCI-H1975 [12]): 0.032%; Activity (NCI-H1975 [13]): 65.8%; Activity (NCI-H1975 [14]): 12.2%
